Experimental data: ChEMBL document CHEMBL4350978, “Phytochemical and pharmacological attributes of piperine: A bioactive ingredient of black pepper” (2019)
Converted amounts (≈) assume the structure as drawn. Values belong to the molecule of their own block, whether it stands above or below them.

Tests used:
Type in all cases: functional
Escherichia coli [1] = assay: Antibacterial activity against Escherichia coli assessed as diameter of zone of inhibition at 15 ug/disc by disc diffusion method; conditions: read-out: DIZ
Klebsiella pneumoniae [2] = assay: Antibacterial activity against Klebsiella pneumoniae assessed as diameter of zone of inhibition at 15 ug/disc by disc diffusion method; conditions: read-out: DIZ
Staphylococcus aureus [3] = assay: Antibacterial activity against Staphylococcus aureus assessed as diameter of zone of inhibition at 15 ug/disc by disc diffusion method; conditions: read-out: DIZ
Pseudomonas aeruginosa [4] = assay: Antibacterial activity against Pseudomonas aeruginosa assessed as diameter of zone of inhibition at 15 ug/disc by disc diffusion method; conditions: read-out: DIZ
Proteus vulgaris [5] = assay: Antibacterial activity against Proteus vulgaris assessed as diameter of zone of inhibition at 15 ug/disc by disc diffusion method; conditions: read-out: DIZ
Proteus vulgaris [6] = assay: Antibacterial activity against Proteus vulgaris by serial dilution method
Candida albicans [7] = assay: Antifungal activity against Candida albicans assessed as diameter of zone of inhibition at […] by disc diffusion method
Escherichia coli [8] = assay: Antibacterial activity against Escherichia coli assessed as diameter of zone of inhibition at […] by disc diffusion method
Proteus vulgaris [9] = assay: Antibacterial activity against Proteus vulgaris assessed as diameter of zone of inhibition at […] by disc diffusion method
Pseudomonas aeruginosa [10] = assay: Antibacterial activity against Pseudomonas aeruginosa assessed as diameter of zone of inhibition at […] by disc diffusion method
Escherichia coli [11] = assay: Antibacterial activity against Escherichia coli by serial dilution method
Staphylococcus aureus [12] = assay: Antibacterial activity against Staphylococcus aureus assessed as diameter of zone of inhibition at […] by disc diffusion method
Klebsiella pneumoniae [13] = assay: Antibacterial activity against Klebsiella pneumoniae by serial dilution method
Klebsiella pneumoniae [14] = assay: Antibacterial activity against Klebsiella pneumoniae assessed as diameter of zone of inhibition at […] by disc diffusion method
Candida albicans [15] = assay: Antifungal activity against Candida albicans by serial dilution method
Staphylococcus aureus [16] = assay: Antibacterial activity against Staphylococcus aureus by serial dilution method
Proteus vulgaris [17] = assay: Antibacterial activity against Proteus vulgaris assessed as diameter of zone of inhibition at 10 ug/disc by disc diffusion method; conditions: read-out: DIZ
Escherichia coli [18] = assay: Antibacterial activity against Escherichia coli assessed as diameter of zone of inhibition at 10 ug/disc by disc diffusion method; conditions: read-out: DIZ
Pseudomonas aeruginosa [19] = assay: Antibacterial activity against Pseudomonas aeruginosa assessed as diameter of zone of inhibition at 10 ug/disc by disc diffusion method; conditions: read-out: DIZ
Staphylococcus aureus [20] = assay: Antibacterial activity against Staphylococcus aureus assessed as diameter of zone of inhibition at 10 ug/disc by disc diffusion method; conditions: read-out: DIZ
Klebsiella pneumoniae [21] = assay: Antibacterial activity against Klebsiella pneumoniae assessed as diameter of zone of inhibition at 10 ug/disc by disc diffusion method; conditions: read-out: DIZ

Structure (SMILES): CC[C@H]1OC(=O)[C@H](C)[C@@H](O[C@H]2C[C@@](C)(OC)[C@@H](O)[C@H](C)O2)[C@H](C)[C@@H](O[C@@H]2O[C@H](C)C[C@H](N(C)C)[C@H]2O)[C@](C)(O)C[C@@H](C)C(=O)[C@H](C)[C@@H](O)[C@]1(C)O [ERYTHROMYCIN]
zone of inhibition at 15 µg/disc (Escherichia coli [1]): 15 mm | zone of inhibition at 15 µg/disc (Klebsiella pneumoniae [2]): 10 mm | zone of inhibition at 15 µg/disc (Staphylococcus aureus [3]): 24 mm | zone of inhibition at 15 µg/disc (Pseudomonas aeruginosa [4]): 18 mm | zone of inhibition at 15 µg/disc (Proteus vulgaris [5]): 6 mm

MIC (Proteus vulgaris [6]): 12.5 mg/mL (≈ 43.8 mM) | MIC (Escherichia coli [11]): 6.25 mg/mL (≈ 21.9 mM) | MIC (Klebsiella pneumoniae [13]): 25 mg/mL (≈ 87.6 mM) | MIC (Candida albicans [15]): 3.12 mg/mL (≈ 11 mM) | MIC (Staphylococcus aureus [16]): 50 mg/mL (≈ 175 mM)
Structure (SMILES): O=C(/C=C/C=C/c1ccc2c(c1)OCO2)N1CCCCC1 [PIPERINE]
diameter of the inhibition zone (DIZ) (Candida albicans [7]): 23 mm | diameter of the inhibition zone (DIZ) (Escherichia coli [8]): 20 mm | diameter of the inhibition zone (DIZ) (Proteus vulgaris [9]): 17 mm | diameter of the inhibition zone (DIZ) (Pseudomonas aeruginosa [10]): 8 mm | diameter of the inhibition zone (DIZ) (Staphylococcus aureus [12]): 12 mm | diameter of the inhibition zone (DIZ) (Klebsiella pneumoniae [14]): 15 mm

Structure (SMILES): CN[C@@H]1[C@H](O[C@H]2[C@H](O[C@H]3[C@H](O)[C@@H](O)[C@H](N=C(N)N)[C@@H](O)[C@@H]3N=C(N)N)O[C@@H](C)[C@]2(O)C=O)O[C@@H](CO)[C@H](O)[C@H]1O [STREPTOMYCIN]
zone of inhibition at 10 µg/disc (Proteus vulgaris [17]): 10 mm | zone of inhibition at 10 µg/disc (Escherichia coli [18]): 13.5 mm | zone of inhibition at 10 µg/disc (Pseudomonas aeruginosa [19]): 22 mm | zone of inhibition at 10 µg/disc (Staphylococcus aureus [20]): 23 mm | zone of inhibition at 10 µg/disc (Klebsiella pneumoniae [21]): 20 mm
